The record followed here is patent US8048879B2, “Substituted 4,5,6,7-tetrahydro-isoxazolo[4,5-c]pyridine compounds and use thereof for producing medicaments” (Gruenenthal GmbH, priority 2005, dated 2011).

This experiment deals with batrachotoxin (BTX) binding site of the sodium channel. The experiment in a line: Affinity for the batrachotoxin (BTX) binding site of the sodium channel, [3H]-batrachotoxinin A20 α-benzoate, rat cerebrocortex synaptosomes. The note with it: test concentration not given.
With `C=CCOc1ccc(CN(Cc2ccco2)C(=O)c2noc3c2CN(S(=O)(=O)c2cccc(C(F)(F)F)c2)CC3)cc1` [Example 87, 5-(3-trifluoromethyl-benzenesulfonyl)-4,5,6,7-tetrahydro-isoxazolo[4,5-c]pyridine-3-carboxylic acid (4-allyloxy-benzyl)-furan-2-ylmethyl amide], the “BTX inhibition (rat) % inhibition” value is recorded as 41%. The same measure for `Cc1cc(C(=O)N2CCc3onc(C(=O)NCCN4CCOCC4)c3C2)ccc1Br` [Example 90, 5-(4-bromo-3-methyl-benzoyl)-4,5,6,7-tetrahydro-isoxazolo[4,5-c]pyridine-3-carboxylic acid (2-morpholin-4-yl-ethyl) amide]: 42%; for `Cc1ccc(S(=O)(=O)N2CCc3onc(C(=O)NC4CCN(Cc5c(Cl)cccc5Cl)C4)c3C2)cc1` (stereo not drawn) [Example 91, 5-(toluene-4-sulfonyl)-4,5,6,7-tetrahydro-isoxazolo[4,5-c]pyridine-3-carboxylic acid [1-(2,6-dichloro-benzyl)-pyrrolidin-3-yl] amide]: 61%. On to `O=C(NCCN1CCCC1)c1noc2c1CN(C(=O)COc1cccc(Cl)c1)CC2` [Example 94, 5-[2-(3-chlorophenoxy)-acetyl]-4,5,6,7-tetrahydro-isoxazolo[4,5-c]pyridine-3-carboxylic acid (2-pyrrolidin-1-yl-ethyl) amide], for which the “BTX inhibition (rat) % inhibition” value was 60%. As to `O=C(c1noc2c1CN(S(=O)(=O)c1ccccc1)CC2)N1CCN(CC=Cc2ccccc2)CC1` [Example 97, (5-benzenesulfonyl-4,5,6,7-tetrahydro-isoxazolo[4,5-c]pyridin-3-yl)-[4-(3-phenyl-allyl)-piperazin-1-yl]-methanone], the “BTX inhibition (rat) % inhibition” value is listed as 70%. Next, `Cc1cc(C(=O)N2CCc3onc(C(=O)NCCN4CCCC4)c3C2)ccc1Br` [Example 102, 5-(4-bromo-3-methyl-benzoyl)-4,5,6,7-tetrahydro-isoxazolo[4,5-c]pyridine-3-carboxylic acid (2-pyrrolidin-1-yl-ethyl) amide]: 73%. In the case of `O=C(NC1CCN(Cc2ccc(C(F)(F)F)cc2)C1)c1noc2c1CN(S(=O)(=O)c1ccccc1)CC2` (stereo not drawn) [Example 103, 5-benzenesulfonyl-4,5,6,7-tetrahydro-isoxazolo[4,5-c]pyridine-3-carboxylic acid [1-(4-trifluoromethyl-benzyl)-pyrrolidin-3-yl] amide], the “BTX inhibition (rat) % inhibition” value amounted to 92%. Next, `CC(CNC(=O)c1noc2c1CN(S(=O)(=O)c1cccs1)CC2)c1ccccc1` (stereo not drawn) [Example 104, 5-(thiophene-2-sulfonyl)-4,5,6,7-tetrahydro-isoxazolo[4,5-c]pyridine-3-carboxylic acid (2-phenyl-propyl) amide]: 50%; `COc1ccc(OCCNC(=O)c2noc3c2CN(S(=O)(=O)c2ccc(C)cc2)CC3)cc1` [Example 109, 5-(toluene-4-sulfonyl)-4,5,6,7-tetrahydro-isoxazolo[4,5-c]pyridine-3-carboxylic acid [2-(4-methoxy-phenoxy)-ethyl] amide]: 56%.

Take `O=C(c1noc2c1CN(S(=O)(=O)c1cc(Cl)ccc1Cl)CC2)N1CCN(c2ccccc2Cl)CC1` [Example 110, [4-(2-chlorophenyl)-piperazin-1-yl]-[5-(2,5-dichloro-benzenesulfonyl)-4,5,6,7-tetrahydro-isoxazolo[4,5-c]pyridin-3-yl]-methanone]: the “BTX inhibition (rat) % inhibition” value is on record as 55%.

In the case of `O=C(NCc1ccc(C(F)(F)F)c(F)c1)c1noc2c1CN(S(=O)(=O)c1ccccc1)CC2` [Example 113, 5-benzenesulfonyl-4,5,6,7-tetrahydro-isoxazolo[4,5-c]pyridine-3-carboxylic acid 3-fluoro-4-trifluoromethyl-benzyl amide], the “BTX inhibition (rat) % inhibition” value came to 60%. For `CCCCOc1ccc(S(=O)(=O)N2CCc3onc(C(=O)NCC(C)C)c3C2)cc1` [Example 114, 5-(4-butoxy-benzenesulfonyl)-4,5,6,7-tetrahydro-isoxazolo[4,5-c]pyridine-3-carboxylic acid isobutyl amide], the “BTX inhibition (rat) % inhibition” value is 58%.

For the molecule `O=C(NCCN1CCCC1)c1noc2c1CN(S(=O)(=O)c1cccc(Cl)c1)CC2` [Example 118, 5-(3-chloro-benzenesulfonyl)-4,5,6,7-tetrahydro-isoxazolo[4,5-c]pyridine-3-carboxylic acid (2-pyrrolidin-1-yl-ethyl) amide], the “BTX inhibition (rat) % inhibition” value is 76%.

As to `CC(C)CNC(=O)c1noc2c1CN(C(=O)C(NC(=O)OCc1ccccc1)c1ccccc1)CC2` (stereo not drawn) [Example 126, [2-(3-isobutylcarbamoyl-6,7-dihydro-4H-isoxazolo[4,5-c]pyridin-5-yl)-2-oxo-1-phenyl-ethyl]-carbamic acid benzyl ester], the “BTX inhibition (rat) % inhibition” value is recorded as 88%. Next, `COc1ccc(CNC(=S)N2CCc3onc(C(=O)NC4CCCC4)c3C2)cc1` [Example 127, 5-(4-methoxy-benzylthiocarbamoyl)-4,5,6,7-tetrahydro-isoxazolo[4,5-c]pyridine-3-carboxylic acid cyclopentyl amide]: 74%; `O=C(NC(=S)N1CCc2onc(C(=O)NCCN3CCCC3)c2C1)c1ccccc1` [Example 128, 5-benzoylaminocarbothioyl-4,5,6,7-tetrahydro-isoxazolo[4,5-c]pyridine-3-carboxylic acid (2-pyrrolidin-1-yl-ethyl) amide]: 74%; `O=C(NCC1CC1)c1noc2c1CN(C(=S)NCc1ccc(Cl)cc1)CC2` [Example 129, 5-(4-chloro-benzylthiocarbamoyl)-4,5,6,7-tetrahydro-isoxazolo[4,5-c]pyridine-3-carboxylic acid cyclopropylmethyl amide]: 53%. On to `COCCNC(=S)N1CCc2onc(C(=O)NCCc3ccccc3)c2C1` [Example 130, 5-(2-methoxy-ethylthiocarbamoyl)-4,5,6,7-tetrahydro-isoxazolo[4,5-c]pyridine-3-carboxylic acid phenethyl amide], for which the “BTX inhibition (rat) % inhibition” value is on record as 68%. For the molecule `O=C(NCCc1ccccc1)c1noc2c1CN(C(=S)Nc1c(F)c(F)c(F)c(F)c1F)CC2` [Example 131, 5-pentafluorophenylthiocarbamoyl-4,5,6,7-tetrahydro-isoxazolo[4,5-c]pyridine-3-carboxylic acid phenethyl amide], the “BTX inhibition (rat) % inhibition” value turned out to be 58%. As to `CC(NC(=S)N1CCc2onc(C(=O)NCCc3ccccc3)c2C1)c1ccccc1` (stereo not drawn) [Example 132, 5-(1-phenyl-ethylthiocarbamoyl)-4,5,6,7-tetrahydro-isoxazolo[4,5-c]pyridine-3-carboxylic acid phenethyl amide], the “BTX inhibition (rat) % inhibition” value came to 90%. The same measure for `CCOC(=O)CCNC(=O)c1noc2c1CN(C(=S)NCC1CCCCC1)CC2` [Example 134, 3-{[5-(cyclohexylmethyl-thiocarbamoyl)-4,5,6,7-tetrahydro-isoxazolo[4,5-c]pyridine-3-carbonyl]-amino}-propionic acid ethyl ester]: 55%; for `O=C(Nc1ccccc1)c1noc2c1CN(Cc1ccc3ccccc3c1Br)CC2` [Example 135, 5-(1-bromo-naphthalen-2-ylmethyl)-4,5,6,7-tetrahydro-isoxazolo[4,5-c]pyridine-3-carboxylic acid phenyl amide]: 61%; for `O=C(c1noc2c1CN(S(=O)(=O)c1ccc(Cl)c(Cl)c1)CC2)N1CCN(c2nccs2)CC1` [Example 140, (5-(3,4-dichlorophenylsulfonyl)-4,5,6,7-tetrahydroisoxazolo[4,5-c]pyridin-3-yl)(4-(thiazol-2-yl)piperazin-1-yl)methanone]: 55%. Consider `Cc1cc(C)c(S(=O)(=O)N2CCc3onc(C(=O)N4CCN(c5nccs5)CC4)c3C2)c(C)c1` [Example 141, (5-(mesitylsulfonyl)-4,5,6,7-tetrahydroisoxazolo[4,5-c]pyridin-3-yl)(4-(thiazol-2-yl)piperazin-1-yl)methanone], for which the “BTX inhibition (rat) % inhibition” value stood at 67%.

As to `O=C(c1noc2c1CN(S(=O)(=O)c1cccc3ccccc13)CC2)N1CCN(c2nccs2)CC1` [Example 142, (5-(naphthalen-1-ylsulfonyl)-4,5,6,7-tetrahydroisoxazolo[4,5-c]pyridin-3-yl)(4-(thiazol-2-yl)piperazin-1-yl)methanone], the “BTX inhibition (rat) % inhibition” value is given as 54%. Consider `O=C(c1noc2c1CN(S(=O)(=O)c1ccc3ccccc3c1)CC2)N1CCN(c2nccs2)CC1` [Example 143, (5-(naphthalen-2-ylsulfonyl)-4,5,6,7-tetrahydroisoxazolo[4,5-c]pyridin-3-yl)(4-(thiazol-2-yl)piperazin-1-yl)methanone], for which the “BTX inhibition (rat) % inhibition” value was found to be 48%. In the case of `Cc1cc(C)c(S(=O)(=O)N2CCc3onc(C(=O)N4CCC(CCN5CCCC5)CC4)c3C2)c(C)c1` [Example 146, (5-(mesitylsulfonyl)-4,5,6,7-tetrahydroisoxazolo[4,5-c]pyridin-3-yl)(4-(2-(pyrrolidin-1-yl)ethyl)piperidin-1-yl)methanone], the “BTX inhibition (rat) % inhibition” value is given as 81%.

As for `O=C(c1noc2c1CN(S(=O)(=O)c1ccc(Cl)c(Cl)c1)CC2)N1CCC(CCN2CCCC2)CC1` [Example 147, (5-(3,4-dichlorophenylsulfonyl)-4,5,6,7-tetrahydroisoxazolo[4,5-c]pyridin-3-yl)(4-(2-(pyrrolidin-1-yl)ethyl)piperidin-1-yl)methanone], the “BTX inhibition (rat) % inhibition” value turned out to be 70%. Turning to `O=C(c1noc2c1CN(S(=O)(=O)c1ccc3ccccc3c1)CC2)N1CCC(CCN2CCCC2)CC1` [Example 148, (5-(naphthalen-2-ylsulfonyl)-4,5,6,7-tetrahydroisoxazolo[4,5-c]pyridin-3-yl)(4-(2-(pyrrolidin-1-yl)ethyl)piperidin-1-yl)methanone], the “BTX inhibition (rat) % inhibition” value is 74%. Turning to `Cl.O=C(c1noc2c1CN(S(=O)(=O)c1cccc3ccccc13)CC2)N1CCC(CCN2CCCC2)CC1` [Example 149, (5-(Naphthalene-1-ylsulfonyl)-4,5,6,7-tetrahydroisoxazolo[4,5-c]pyridin-3-yl)(4-(2-(pyrrolidin-1-yl)ethyl)piperidin-1-yl)methanone hydrochloride], the “BTX inhibition (rat) % inhibition” value was found to be 86%.
